Patent US20070249607A1, “NK-1 AND SEROTONIN TRANSPORTER INHIBITORS” (Bristol-Myers Squibb Company, priority 2006, published 2007)
Where two headings read alike, the source gives them in different places.

How the values were obtained:
[1] = target: T1, neurokinin-1 (NK-1) receptor (Homo sapiens, UniProt P25103); assay: NK-1 Binding assay ([125I] Substance P competition, U373 cell membranes); conditions: Table 1; U373 membranes, [125I] Substance P displacement; read-out: NK-1 IC50
T1 construct: a human glioblastoma-astrocytoma cell line that endogenously expresses the neurokinin-1 (NK-1) receptor; endogenous in cells; host or cells: U373 human glioblastoma-astrocytoma cells (membranes)
T1 sequence (P25103 whole entry): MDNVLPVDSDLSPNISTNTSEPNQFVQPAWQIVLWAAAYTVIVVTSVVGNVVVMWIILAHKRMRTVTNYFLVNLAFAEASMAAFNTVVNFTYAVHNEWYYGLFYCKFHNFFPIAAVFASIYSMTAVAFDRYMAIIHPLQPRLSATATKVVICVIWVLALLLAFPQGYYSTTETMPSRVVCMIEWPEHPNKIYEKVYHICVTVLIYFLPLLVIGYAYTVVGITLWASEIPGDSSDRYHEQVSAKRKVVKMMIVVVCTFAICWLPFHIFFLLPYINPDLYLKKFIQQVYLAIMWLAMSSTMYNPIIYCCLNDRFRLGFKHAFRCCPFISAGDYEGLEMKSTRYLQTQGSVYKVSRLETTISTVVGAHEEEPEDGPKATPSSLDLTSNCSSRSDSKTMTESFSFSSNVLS
Method: NK-1 Binding assay. U373 cells, a human glioblastoma-astrocytoma cell line that endogenously expresses the neurokinin-1 (NK-1) receptor, were grown in a monolayer culture at 37° C. in 5% CO2 and fed with Minimum Essential Medium (MEM) supplemented with 10% fetal bovine serum. Membranes were prepared as follows: Cells were washed twice with ice-cold phosphate-buffered saline (pH 7.4) and then incubated for 5-10 minutes with ice-cold 10 mM Tris buffer (pH 7.4) containing 5 mM EDTA. Cells were removed from plates, homogenized, and centrifuged at 32,000×g for 20 minutes. The resulting supernatant was discarded, and the pellet resuspended by homogenization in 50 mM Tris buffer (pH 7.4) containing 1 mM EDTA and centrifuged at 32,000×g for 20 minutes. The resulting supernatant was discarded, and the pellet resuspended by homogenization in NK-1 binding assay buffer (50 mM Tris-HCL (pH 7.4), 3 mM MnCl2, 200 μg/ml BSA, 5 μg/ml chymostatin, 40 μg/ml bacitracin and 4 μg/ml leupeptin).
On the day of an experiment the membrane preparation was thawed, homogenized and diluted with NK-1 binding assay buffer to the appropriate concentration. […] Substance P, at a concentration of […], and concentrations of drugs ranging from 10000 to 0.01 nM. Samples were incubated for 30 min at 20° C. then filtered through GF/B glass fiber filters (pretreated with 1% polyethyleneimine and 0.3% Triton X-100) using a Brandel cell harvester. The filters were then washed with 10 ml ice cold 50 mM Tris-HCL (pH 7.4) containing 3 mM MgCl2. […] The amount of radioligand bound in the presence and absence of competitor was analyzed by plotting (-)log drug concentration versus the amount of radioligand specifically bound. The midpoint of the displacement curve (IC50, nM), signifies the potency.

[2] = target: T2, human serotonin transporters (Homo sapiens, UniProt P31645); assay: Serotonin transporter binding assay ([3H]-citalopram competition, HEK-hSERT cell membranes)
T2 construct: expressed in transfected cells
T2 sequence (P31645 whole entry): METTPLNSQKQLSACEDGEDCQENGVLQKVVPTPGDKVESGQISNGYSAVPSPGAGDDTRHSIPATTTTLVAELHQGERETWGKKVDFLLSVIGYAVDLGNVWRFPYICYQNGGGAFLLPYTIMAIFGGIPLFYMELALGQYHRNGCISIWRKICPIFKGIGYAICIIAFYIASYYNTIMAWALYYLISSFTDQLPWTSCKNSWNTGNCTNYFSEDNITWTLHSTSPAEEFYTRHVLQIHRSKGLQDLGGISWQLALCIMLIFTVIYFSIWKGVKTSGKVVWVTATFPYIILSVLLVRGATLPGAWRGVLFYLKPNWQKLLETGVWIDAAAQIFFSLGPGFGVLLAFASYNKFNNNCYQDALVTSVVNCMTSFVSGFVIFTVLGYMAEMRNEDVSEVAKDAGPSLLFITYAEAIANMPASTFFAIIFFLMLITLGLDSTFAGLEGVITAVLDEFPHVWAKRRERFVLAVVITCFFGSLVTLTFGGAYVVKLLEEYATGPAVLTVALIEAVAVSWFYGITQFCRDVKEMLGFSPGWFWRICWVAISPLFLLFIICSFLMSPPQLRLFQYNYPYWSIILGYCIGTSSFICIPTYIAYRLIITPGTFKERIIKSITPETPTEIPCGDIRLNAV
Method: Serotonin transporter binding assay. HEK-293 cells that stably express human serotonin transporters (HEK-hSERT cells) were grown at 37° C. in 5% CO2 as a monolayer in medium consisting of EMEM supplemented with 10% fetal bovine serum and G418 sulfate (500 μg/ml). To prepare membranes for radioligand binding experiments, cells were rinsed twice with phosphate-buffered saline (138 mM NaCl, 4.1 mM KCl, 5.1 mM Na2PO4, 1.5 mM KH2PO4, 11.1 mM glucose, pH 7.4). Cells were transferred from plates to polypropylene tubes (16×100 mm), centrifuged at 1,200×g for 5 min and were frozen at −80° C. until assay. Following centrifugation, pellets were resuspended by homogenization in buffer consisting of 50 mM Tris (pH 7.7 at 25° C.), 120 mM NaCl and 5 mM KCl and then centrifuged at 32,000×g for 10 min. Following centrifugation, supernatants were discarded and pellets were resuspended in buffer consisting of 50 mM Tris (pH 7.4 at 25° C.), 150 mM NaCl and 5 mM KCl. Membrane homogenates (200 μl/plate) were incubated with 1 nM [^3H]-citalopram (specific activity=85 Ci/mmol) and increasing concentrations of test compounds for 1 hr at 25° C. in a total volume of 250 μl. The assay buffer consisted of 50 mM Tris (pH 7.4 at 25° C.), 120 mM NaCl and 5 mM KCl (pH 7.4 with conc. HCl). Plates were incubated for 1 hr at 25° C., then filtered through 0.5% PEI treated Whatman GF/B filters using a Brandel cell harvester. Filters were washed three times with 3 ml of ice-cold tris wash buffer. Non-specific binding was defined with 10 μM fluoxetine. Amount of radioligand bound in the presence and absence of competitor was analyzed by plotting (-)log drug concentration versus the amount of radioligand specifically bound. The midpoint of the displacement curve (IC50, nM), signifies the potency. Ki values can be calculated using the method of Cheng and Prusoff (Cheng and Prusoff, BiochemicalPharmacology, Vol 22, pp. 3099-3108, Pergamon Press (1973)).

[3] = Table 1, HEK-hSERT membranes, [3H]-citalopram displacement, read-out: SERT IC50

Compound | IC50 [1] [nM] | IC50 [2, 3] [nM] | IC50 [2] [nM]
COc1ncc(-c2cc(COCC3(c4ccccc4)CCNCC3)cc(C(F)(F)F)c2)cn1 | 0.01 to 100 | 0.01 to 100 | 
FC(F)(F)c1cc(COCC2(c3ccccc3)CCNCC2)cc(-c2ccncc2)c1 | 0.01 to 100 | 0.01 to 100 | 
N#Cc1ccc(-c2cc(COCC3(c4ccccc4)CCNCC3)cc(C(F)(F)F)c2)cc1 | 0.01 to 100 | 0.01 to 100 | 
CN1CCN(c2cc(-c3cc(COCC4(c5ccccc5)CCNCC4)cc(C(F)(F)F)c3)ccn2)CC1 | > 300 | 100 to 300 | 
Fc1cc(-c2cc(COCC3(c4ccccc4)CCNCC3)cc(C(F)(F)F)c2)c(Cl)cn1 | 0.01 to 100 | 0.01 to 100 | 
FC(F)(F)c1cc(COCC2(c3ccccc3)CCNCC2)cc(-c2ccccc2C(F)(F)F)c1 | > 300 | 100 to 300 | 
FC(F)(F)c1cc(COCC2(c3ccccc3)CCNCC2)cc(-c2cnc3ccccc3c2)c1 | 100 to 300 | 0.01 to 100 | 
FC(F)(F)c1cc(COCC2(c3ccccc3)CCNCC2)cc(-c2ccc3cnccc3c2)c1 | 100 to 300 | 0.01 to 100 | 
FC(F)(F)c1cc(COCC2(c3ccccc3)CCNCC2)cc(-c2cccc3ccccc23)c1 | > 300 | 100 to 300 | 
FC(F)(F)c1cc(COCC2(c3ccccc3)CCNCC2)cc(-c2ccccn2)c1 | 0.01 to 100 | 0.01 to 100 | 
FC(F)(F)c1cc(COCC2(c3ccccc3)CCNCC2)cc(-c2nccs2)c1 | 0.01 to 100 | 0.01 to 100 | 
FC(F)(F)c1cc(COCC2(c3ccccc3)CCNCC2)cc(-c2ncccn2)c1 | 100 to 300 | 0.01 to 100 | 
Cn1nc(C(F)(F)F)cc1-c1cc(COCC2(c3ccccc3)CCNCC2)cc(C(F)(F)F)c1 | > 300 | 0.01 to 100 | 
Cn1cncc1-c1cc(COCC2(c3ccccc3)CCNCC2)cc(C(F)(F)F)c1 | 100 to 300 | 0.01 to 100 | 
FC(F)(F)c1cc(COCC2(c3ccccc3)CCNCC2)cc(-n2nnnc2C(F)(F)F)c1 | > 300 | 0.01 to 100 | 
COc1ccc(-c2nnn(C)n2)cc1COCC1(c2ccccc2)CCNCC1 | > 300 | 100 to 300 | 

Compound | IC50 [1] [nM] | IC50 [2, 3] [nM] | IC50 [2] [nM]
FC(F)(F)c1cc(COCC2(c3ccccc3)CCNCC2)cc(-c2nnn[nH]2)c1 | 100 to 300 | 0.01 to 100 | 
Cn1nnc(-c2cc(COCC3(c4ccccc4)CCNCC3)cc(C(F)(F)F)c2)n1 | 0.01 to 100 | 0.01 to 100 | 
Cn1nnnc1-c1cc(COCC2(c3ccccc3)CCNCC2)cc(C(F)(F)F)c1 | 0.01 to 100 | 0.01 to 100 | 
Cc1nnnn1-c1cc(COCC2(c3ccccc3)CCNCC2)cc(C(F)(F)F)c1 | 100 to 300 | 0.01 to 100 | 
COc1ccc(-n2nnnc2C)cc1COCC1(c2ccccc2)CCNCC1 | 0.01 to 100 | 0.01 to 100 | 
COc1ccc(-c2ccncc2)cc1COCC1(c2ccccc2)CCNCC1 | > 300 | 0.01 to 100 | 
COc1ccc(-c2ccc(C#N)nc2)cc1COCC1(c2ccccc2)CCNCC1 | 100 to 300 | 0.01 to 100 | 
COc1ccc(-c2ccc(C#N)cc2)cc1COCC1(c2ccccc2)CCNCC1 | 0.01 to 100 | 0.01 to 100 | 
N#Cc1ccc(-c2cc(COCC3(c4ccc(F)cc4)CCNCC3)cc(C(F)(F)F)c2)cc1 | 0.01 to 100 | 0.01 to 100 | 
CN1CCC(COCc2cc(-c3ccc(C#N)cc3)cc(C(F)(F)F)c2)(c2ccccc2)CC1 | 0.01 to 100 |  | 0.01 to 100
CN1CCC(COCc2cc(-c3ccncc3)cc(C(F)(F)F)c2)(c2ccccc2)CC1 | 0.01 to 100 |  | 0.01 to 100
CN1CCC(COCc2cc(-c3ccc(C#N)cc3)cc(C(F)(F)F)c2)(c2ccc(F)cc2)CC1 | 0.01 to 100 |  | 0.01 to 100
CC(OCC1(c2ccccc2)CCNCC1)c1cc(-c2ccc(C#N)cc2)cc(C(F)(F)F)c1 (stereo not shown) | 0.01 to 100 | 0.01 to 100 | 
CC(OCC1(c2ccccc2)CCN(C)CC1)c1cc(-c2ccc(C#N)cc2)cc(C(F)(F)F)c1 (stereo not shown) | 0.01 to 100 |  | 0.01 to 100
C[C@@H](OCC1(c2ccccc2)CCNCC1)c1cc(-c2ccc(C#N)cc2)cc(C(F)(F)F)c1 | 0.01 to 100 | 0.01 to 100 | 
N#Cc1ccc(-c2cc(Br)cc(COCC3(c4ccccc4)CCNCC3)c2)cc1 | 0.01 to 100 | 0.01 to 100 | 

The next lines start with results.

IC50 [1] [nM] | IC50 [2, 3] [nM] | Compound | IC50 [2] [nM]
100 to 300 | 0.01 to 100 | COc1cc(-c2cc(COCC3(c4ccccc4)CCNCC3)cc(C(F)(F)F)c2)c(F)cn1 | 
> 300 | 0.01 to 100 | COc1cc(-c2cc(COCC3(c4ccccc4)CCNCC3)cc(C(F)(F)F)c2)c(Cl)cn1 | 
0.01 to 100 | 0.01 to 100 | COc1cc(-c2cc(COCC3(c4ccccc4)CCNCC3)cc(C(F)(F)F)c2)ccn1 | 
100 to 300 | 0.01 to 100 | COc1ncc(-c2cc(COCC3(c4ccccc4)CCNCC3)cc(C(F)(F)F)c2)c(OC)n1 | 
0.01 to 100 | 0.01 to 100 | Nc1ccc(-c2cc(COCC3(c4ccccc4)CCNCC3)cc(C(F)(F)F)c2)cn1 | 
0.01 to 100 | 0.01 to 100 | FC(F)(F)c1cc(COCC2(c3ccccc3)CCNCC2)cc(-c2ccc(Cl)nc2)c1 | 
0.01 to 100 | 0.01 to 100 | FC(F)(F)c1cc(COCC2(c3ccccc3)CCNCC2)cc(-c2cccnc2Cl)c1 | 
0.01 to 100 | 0.01 to 100 | Fc1ncccc1-c1cc(COCC2(c3ccccc3)CCNCC2)cc(C(F)(F)F)c1 | 
0.01 to 100 | 0.01 to 100 | FC(F)(F)c1cc(COCC2(c3ccccc3)CCNCC2)cc(-c2ccc(Cl)nc2Cl)c1 | 
> 300 | 0.01 to 100 | Cc1ccncc1-c1cc(COCC2(c3ccccc3)CCNCC2)cc(C(F)(F)F)c1 | 
0.01 to 100 | 0.01 to 100 | O=[N+]([O-])c1cccc(-c2cc(COCC3(c4ccccc4)CCNCC3)cc(C(F)(F)F)c2)c1 | 
0.01 to 100 | 0.01 to 100 | Nc1cccc(-c2cc(COCC3(c4ccccc4)CCNCC3)cc(C(F)(F)F)c2)c1 | 
0.01 to 100 | 0.01 to 100 | FC(F)(F)c1cc(COCC2(c3ccccc3)CCNCC2)cc(-c2ccc(Cl)cc2Cl)c1 | 
0.01 to 100 | 0.01 to 100 | Fc1ccc(-c2cc(COCC3(c4ccccc4)CCNCC3)cc(C(F)(F)F)c2)cc1 | 
100 to 300 | 0.01 to 100 | CSc1ccccc1-c1cc(COCC2(c3ccccc3)CCNCC2)cc(C(F)(F)F)c1 | 
> 300 | > 300 | Cc1cc(C)c(-c2cc(COCC3(c4ccccc4)CCNCC3)cc(C(F)(F)F)c2)c(C)c1 | 
> 300 | 0.01 to 100 | COc1ccc(OC)c(-c2cc(COCC3(c4ccccc4)CCNCC3)cc(C(F)(F)F)c2)c1 | 
> 300 | 0.01 to 100 | COc1ccc(Cl)cc1-c1cc(COCC2(c3ccccc3)CCNCC2)cc(C(F)(F)F)c1 | 
0.01 to 100 | 0.01 to 100 | N#Cc1cccc(-c2cc(COCC3(c4ccccc4)CCNCC3)cc(C(F)(F)F)c2)c1 | 
0.01 to 100 | 0.01 to 100 | COc1cccc(OC)c1-c1cc(COCC2(c3ccccc3)CCNCC2)cc(C(F)(F)F)c1 | 
0.01 to 100 | 0.01 to 100 | Fc1ccc(-c2cc(COCC3(c4ccccc4)CCNCC3)cc(C(F)(F)F)c2)c(F)c1 | 
0.01 to 100 | 0.01 to 100 | FC(F)(F)c1cc(COCC2(c3ccccc3)CCNCC2)cc(-c2ccco2)c1 | 
0.01 to 100 | 0.01 to 100 | FC(F)(F)c1cc(COCC2(c3ccccc3)CCNCC2)cc(-c2ccccc2)c1 | 
0.01 to 100 | 0.01 to 100 | Cc1ccc(-c2cc(COCC3(c4ccccc4)CCNCC3)cc(C(F)(F)F)c2)s1 | 
